Tests used:
Assay type in all cases: in vivo
[1] = Biliary excretion after intraduodenal injection (enterohepatic circulation)
Protocol: In another group of experiments, FITC-GC was injected intraduodenally and bile samples collected for a period of two hours. More than 90% of the injected conjugate was excreted in the bile. […] It is these characteristics of fluoresceintly labelled bile acids which make them valuable as diagnostic agents and research tools.

[2] = Liver blood flow measurement by plasma elimination of injected FITC-GC; conditions: 9 kg dog
Protocol: The use of FITC bile acid for measuring liver blood flow has been tested in a dog. The following experimental protocol was followed.
15 μmoles of FITC-labelled glycocholic bile acid (FITC-GC) in 2 ml normal saline were injected into a 9 kg dog. Serial blood samples were taken into heparinized containers at 2, 4, 6, 8, and 10 minutes following the initial injection. The samples were then centrifuged for 5 minutes and the plasma collected. The concentration of FITC-GC in each plasma sample was measured with a PERKIN-ELMERS* spectrophlourimeter, using a previously determined calibration curve for FITC-GC solutions in plasma.
Therefore plasma clearance was calculated as [formula] M-amount of material injected and k=const. (k=1 for 100% extraction, 0.9 for 90% extraction), thus [formula] where [formula] is the slope of the line for concentration vs. time plot on a semi-log paper, and Co is the initial concentration (log Co is determined as an intercept of the plot with the concentration axis). For the purpose of calculating plasma clearance, k was assumed to equal 0.9.
Liver blood flow was then calculated from the plasma clearance value using the previously determined blood hematocrit (Htc) value as follows: [formula]

rats = experiment: Effects on bile flow, sinusoidal blood flow, blood pressure and heart rate (rats); conditions: compared with equimolar amounts of sodium glycocholate
hamsters = experiment: Effects on bile flow, sinusoidal blood flow, blood pressure and heart rate (hamsters); conditions: compared with equimolar amounts of sodium glycocholate

## C[C@H](CCC(=O)NCC(=O)O)[C@H]1CC[C@H]2[C@@H]3[C@H](O)C[C@@H]4C[C@H](OC(=S)Nc5ccc6c(c5)C5(OC6=O)c6ccc(O)cc6Oc6cc(O)ccc65)CC[C@]4(C)[C@H]3C[C@H](O)[C@]12C [FITC-GC, fluorescein isothiocyanate-sodium glycocholate]
[1]; injected intraduodenally, bile collected for two hours, read-out: injected conjugate excreted in the bile
  dose excreted at 2 h: > 90%
[1]; intraduodenal injection and reinjection of bile
  enterohepatic circulation: undergoes an enterohepatic circulation
[1]; reinjection into the duodenum of the bile collected
  elimination of the injected conjugate via bile after reinjection of collected bile: almost complete elimination
[2]; 15 μmoles FITC-GC injected in 2 ml normal saline, samples at 2-10 minutes, k assumed 0.9, corrected for hematocrit
  liver blood flow: 194 mL/min
[2]; 15 μmoles injected, 2, 4, 6, 8 and 10 minutes
  concentration values in plasma serial samples (decline): monoexponential decline
rats
  effect on bile flow: the same effects
  effect on blood pressure: the same effects
  effect on heart rate: the same effects
  effect on sinusoidal blood flow: the same effects
hamsters
  effect on bile flow: the same effects
  effect on blood pressure: the same effects
  effect on heart rate: the same effects
  effect on sinusoidal blood flow: the same effects

Reference: patent publication US4848349A, “Substance and method for measuring hepatic blood flow” (priority 1987, dated 1989)
